Target: T1, sGC α1/β1 heterodimer (Homo sapiens, UniProt Q02108+Q02153)
T1 construct: expressed in transfected cells; host or cells: CHO-K1 (clone #7, CHO-K1/sGC)
T1 sequence (Q02108 1-690): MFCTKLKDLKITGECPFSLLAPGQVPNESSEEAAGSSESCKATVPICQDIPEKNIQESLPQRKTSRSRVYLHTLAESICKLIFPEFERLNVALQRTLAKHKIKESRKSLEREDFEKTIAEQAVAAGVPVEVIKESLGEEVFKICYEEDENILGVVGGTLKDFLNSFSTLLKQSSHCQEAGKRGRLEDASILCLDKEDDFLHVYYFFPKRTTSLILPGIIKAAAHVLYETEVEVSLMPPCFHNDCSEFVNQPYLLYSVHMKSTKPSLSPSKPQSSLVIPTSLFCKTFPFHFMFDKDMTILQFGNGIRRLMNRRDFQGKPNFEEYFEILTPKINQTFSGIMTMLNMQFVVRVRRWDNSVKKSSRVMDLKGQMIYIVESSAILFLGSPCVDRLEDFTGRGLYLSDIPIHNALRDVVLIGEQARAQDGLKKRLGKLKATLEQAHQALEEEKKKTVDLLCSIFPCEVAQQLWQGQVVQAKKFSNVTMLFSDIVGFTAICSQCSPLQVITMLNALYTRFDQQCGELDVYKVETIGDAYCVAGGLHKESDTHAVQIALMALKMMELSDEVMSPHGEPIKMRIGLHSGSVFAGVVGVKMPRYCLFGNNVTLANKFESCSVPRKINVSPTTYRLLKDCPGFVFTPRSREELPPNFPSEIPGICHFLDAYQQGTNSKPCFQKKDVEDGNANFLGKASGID
T1 sequence (Q02153 1-619): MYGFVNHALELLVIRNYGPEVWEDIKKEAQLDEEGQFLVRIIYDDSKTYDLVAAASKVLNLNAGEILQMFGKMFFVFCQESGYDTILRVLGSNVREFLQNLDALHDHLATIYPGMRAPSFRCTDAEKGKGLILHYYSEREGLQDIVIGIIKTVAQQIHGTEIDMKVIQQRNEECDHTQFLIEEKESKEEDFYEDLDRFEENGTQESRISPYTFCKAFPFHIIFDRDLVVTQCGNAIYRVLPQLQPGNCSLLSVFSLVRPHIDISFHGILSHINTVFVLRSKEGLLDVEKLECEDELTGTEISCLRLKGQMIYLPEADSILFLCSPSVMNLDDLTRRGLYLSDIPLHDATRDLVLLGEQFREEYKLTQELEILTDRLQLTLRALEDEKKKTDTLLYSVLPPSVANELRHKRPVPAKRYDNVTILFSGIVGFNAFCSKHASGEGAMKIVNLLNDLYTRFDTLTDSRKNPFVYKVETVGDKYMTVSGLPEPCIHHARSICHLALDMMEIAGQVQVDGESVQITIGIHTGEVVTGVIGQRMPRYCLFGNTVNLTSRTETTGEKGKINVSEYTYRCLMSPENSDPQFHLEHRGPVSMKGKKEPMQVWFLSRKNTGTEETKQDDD
Assay: Cell-based sGC functional assay (CASA assay): cGMP generation in CHO-K1/sGC cells, HTRF detection
Details: for EC50: inflection point (IP) of cGMP generation in CHO-K1/sGC cells, 4P fit, activity expressed as percentage of Compound A; for % Act.: percent activation relative to standard Compound A in CHO-K1/sGC cells; for Emax: CHO-K1, percent activation relative to standard Compound A in CHO-K1/sGC cells, read-out: % Act.
Description: Biological Assay 1: Cell-Based sGC Functional Assay (CASA Assay)
sGC is a heme-containing enzyme that converts GTP to secondary messenger cGMP. Increases in cGMP levels affect several physiological processes including vasorelaxation through multiple downstream pathways. […] Heme-dependent activators (HDAs) preferentially activate sGC containing a ferrous heme group. To determine the effect of sGC activators on enzyme activity, the CASA assay was developed to monitor the generation of cGMP in a cell line that stably expresses the heterodimeric sGC protein.
A CHO-K1 cell line stably expressing the sGC α1/β1 heterodimer was generated using a standard transfection protocol. CHO-K1 cells were transfected with plasmids pIREShyghsGCal and pIRESneo-hsGCβ1 simultaneously using FUGENE reagent. Clones that stably express both subunits were selected with hygromycin and neomycin for 2 weeks. Clone #7 was chosen for the assay and was designated CHO-K1/sGC. CHO-K1/sGC cells were maintained in F-K12 medium containing 10% heat-inactivated Fetal Bovine Serum (FBS), 100 μg/mL penicillin/streptomycin, 0.5 mg/mL hygromycin and 0.25 mg/mL G418. The cells were then cryopreserved in LN2. On the day of the assay, cells thawed and resuspended in EBSS Assay Buffer (Sigma, E3024) supplemented with 5 mM MgCl2, 10 mM HEPES (4-(2-hydroxyethyl)piperazine-1-ethanesulfonic acid) and 0.05% BSA (bovine serum albumin) (EAB) and cell density was then adjusted to 4×10^5/mL with EAR IBMX (3-isobutyl-1-methylxanthin, 0.5 mM) was added to inhibit degradation of cGMP. Compounds were diluted from DMSO stock solutions and added to the assay at a final DMSO concentration of 2.5%. Cells were incubated with compounds in the presence and absence of 1 μM of Diethylenetriamine/nitric oxide adduct (DETA-NO; Sigma, 17018) for 1 hr at 37° C. At the end of the incubation period, the reaction was terminated and the cells were lysed with the detection reagents from Cisbio Kits. The level of intracellular cGMP was determined using an HTRF-based assay kit (CisBio, 62GM2PEC), which detects the displacement of a fluorescence labeled cGMP from its specific antibody. The cGMP produced by test compounds was directly compared to the maximum cGMP production (this value was set to equal 100% activation.) of the published sGC-HDA Compound A:
[drawing 597] (Example 1 in WO 2010/065275, published Jun. 10, 2010). The test compounds' activities were then expressed as a percentage of Compound A, the standard in every experiment. This percent activation was calculated either in the presence or absence of DETA-NO which was then plotted. IP and maximum fold induction was derived using ADA analysis software for 4P fit.
The compounds in the Examples of the instant invention had inflection points (IP) less than or equal to 10 μM and more particularly less than or equal to about 1 μM.

EC50	% Act.	Emax	SMILES
12 nM	121%	–	Nc1nc(-c2cn3ccnc3c(Cc3ccc(F)cc3)n2)nc2c1C(c1ccc(Cl)cn1)(C1CC1)C(=O)N2 (single isomer, unassigned) [Example 108A, 4-amino-5-(5-chloropyridin-2-yl)-5-cyclopropyl-2-(8-(4-fluorobenzyl)imidazo[1,2-a]pyrazin-6-yl)-5H-pyrrolo[2,3-d]pyrimidin-6(7H)-one]
16 nM	79%	–	Nc1nc(-c2cn3ccnc3c(Cc3ccc(F)cc3)n2)nc2c1C(c1ccc(Cl)cn1)(C1CC1)C(=O)N2 (single isomer, unassigned) [Example 108B, 4-amino-5-(5-chloropyridin-2-yl)-5-cyclopropyl-2-(8-(4-fluorobenzyl)imidazo[1,2-a]pyrazin-6-yl)-5H-pyrrolo[2,3-d]pyrimidin-6(7H)-one]
11 nM	–	151%	Nc1nc(-c2cn3ccnc3c(Cc3ccccc3F)n2)nc2c1C(c1ccc(Cl)cn1)(C1CC1)C(=O)N2 (single isomer, unassigned) [Example 110B, 4-amino-5-(5-chloropyridin-2-yl)-5-cyclopropyl-2-(8-(2-fluorobenzyl)imidazo[1,2-a]pyrazin-6-yl)-5H-pyrrolo[2,3-d]pyrimidin-6(7H)-one]
319 nM	–	101%	COC(=O)c1cccc(C2(C)C(=O)Nc3nc(-c4cn5ccnc5c(CCC(F)(F)C(F)(F)F)n4)nc(N)c32)c1 (single isomer, unassigned) [Example 270B, Methyl 3-(4-amino-5-methyl-6-oxo-2-(8-(3,3,4,4,4-pentafluorobutyl)imidazo[1,2-a]pyrazin-6-yl)-6,7-dihydro-5H-pyrrolo[2,3-d]pyrimidin-5-yl)benzoate]
469 nM	–	106%	CC1(c2ccc(Cl)cc2)C(=O)Nc2nc(-c3cn4ccnc4cn3)nc(N3CC(F)(F)C3)c21 (single isomer, unassigned) [Example 277A]
237 nM	–	126%	CC(C)c1nc(C2(C)C(=O)Nc3nc(-c4cn5ccnc5c(CCC(F)(F)C(F)(F)F)n4)nc(N)c32)no1 (single isomer, unassigned) [Example 321B, 4-amino-5-(5-isopropyl-1,2,4-oxadiazol-3-yl)-5-methyl-2-(8-(3,3,4,4,4-pentafluorobutyl)imidazo[1,2-a]pyrazin-6-yl)-5H-pyrrolo[2,3-d]pyrimidin-6(7H)-one]
1210 nM	–	83%	Cn1nnnc1C1(C2CC2)C(=O)Nc2nc(-c3cn4ccnc4c(CCC(F)(F)C(F)(F)F)n3)nc(N)c21 (single isomer, unassigned) [Example 325A, 4-amino-5-cyclopropyl-5-(1-methyl-1H-tetrazol-5-yl)-2-(8-(3,3,4,4,4-pentafluorobutyl)imidazo[1,2-a]pyrazin-6-yl]-5H-pyrrolo[2,3-d]pyrimidin-6(7H)-one]
486 nM	–	189%	COc1ccc(C2(C3CC3)C(=O)Nc3nc(-c4cn5ccnc5c(CCC(F)(F)C(F)(F)F)n4)nc(N)c32)nc1 (single isomer, unassigned) [Example 337A, 4-amino-5-cyclopropyl-5-(5-methoxypyridin-2-yl)-2-(8-(3,3,4,4,4-pentafluorobutyl)imidazo[1,2-a]pyrazin-6-yl)-5H-pyrrolo[2,3-d]pyrimidin-6(7H)-one]
1550 nM	–	175%	Cc1ncc(C2(C3CC3)C(=O)Nc3nc(-c4cn5ccnc5c(CCC(F)(F)C(F)(F)F)n4)nc(N)c32)cn1 (single isomer, unassigned) [Example 348B, 4-amino-5-cyclopropyl-5-(2-methylpyrimidin-5-yl)-2-(8-(3,3,4,4,4-pentafluorobutyl)imidazo[1,2-a]pyrazin-6-yl)-5H-pyrrolo[2,3-d]pyrimidin-6(7H)-one]
105 nM	–	239%	Nc1nc(-c2cn3ccnc3c(CCC(F)(F)C(F)(F)F)n2)nc2c1C(c1ccc(Cl)cc1)(C1CCC1)C(=O)N2 (single isomer, unassigned) [Example 350B, 4-amino-5-(4-chlorophenyl)-5-cyclobutyl-2-(8-(3,3,4,4,4-pentafluorobutyl)imidazo[1,2-a]pyrazin-6-yl)-5H-pyrrolo[2,3-d]pyrimidin-6(7H)-one]
985 nM	–	182%	Nc1nc(-c2cn3ccnc3c(CCC(F)(F)F)n2)nc2c1C(c1ccc(Cl)cc1)(C1CCC1)C(=O)N2 (single isomer, unassigned) [Example 351B, 4-amino-5-(4-chlorophenyl)-5-cyclobutyl-2-(8-(3,3,3-trifluoropropyl)imidazo[1,2-a]pyrazin-6-yl)-5H-pyrrolo[2,3-d]pyrimidin-6(7H)-one]
302 nM	–	96%	CCCCc1nc(-c2nc(N)c3c(n2)NC(=O)C3(c2cnc(C)cn2)C2CC2)cn2ccnc12 (single isomer, unassigned) [Example 352B, 4-amino-2-(8-butylimidazo[1,2-a]pyrazin-6-yl)-5-cyclopropyl-5-(5-methylpyrazin-2-yl)-5H-pyrrolo[2,3-d]pyrimidin-6(7H)-one]
680 nM	–	113%	Cc1cnc(C2(C3CC3)C(=O)Nc3nc(-c4cn5ccnc5c(CCCC(F)(F)F)n4)nc(N)c32)cn1 (single isomer, unassigned) [Example 357B, 4-amino-5-cyclopropyl-5-(5-methylpyrazin-2-yl)-2-(8-(4,4,4-trifluorobutyl)imidazo[1,2-a]pyrazin-6-yl)-5H-pyrrolo[2,3-d]pyrimidin-6(7H)-one]
20 nM	–	120%	CCCCc1nc(-c2nc(N)c3c(n2)NC(=O)C3(c2ccc(Cl)cc2)C2CCC2)cn2ccnc12 (single isomer, unassigned) [Example 358B, 4-amino-2-(8-butylimidazo[1,2-a]pyrazin-6-yl)-5-(4-chlorophenyl)-5-cyclobutyl-5H-pyrrolo[2,3-d]pyrimidin-6(7H)-one]

From patent US9796733B2, “Imidazo-pyrazine derivatives useful as soluble guanylate cyclase activators” (Merck Sharp & Dohme Corp., priority 2014, dated 2017)
